Experiments:
[1] = tested on: CFTR gene c.2988G>A, exon 18; experiment: CFTR c.2988G>A minigene (EMG-MUT) exon 18 splicing in HEK293 cells, RT-PCR; format: cell-based; conditions: 60 μM, 24 hours
Source text: FIGS. 4C-4F Upper row: The sequences at the 5′ splice site of Exon X in patient cells and minigene constructs are shown (FIGS. 4C-4F). The sequences around the 5′ splice site of Exon X are shown in LOGO plots, with the closely matched CNN motifs indicated beneath the plots. […] Middle row: RT-PCR experiments validated treatment responses in patient cell lines carrying specific splice site mutations. The upper bands indicate the isoform in which the middle Exon X is included while the lower bands indicate the isoform in which the middle Exon X is skipped. Each set of gels is one of the triplicates used to generate the bar plots beneath. […] The statistical significance, as shown in FIGS. 4C-4F, was determined via two-tailed, unpaired Student's test: *p<0.05; **p<0.01; ***p<0.001.
In another example from Table 18, the ClinVar and CNN model predictions related to the CFTR gene carrying a c.2988G>A mutation (see FIG. 4D) were confirmed by stably expressing a minigene containing the full length CFTR coding sequence carrying the c.2988G>A mutation and flanking introns (EMG-MUT)^63 in HEK293 cells. The c.2988G>A mutation was reported to cause skipping of exon 18 in the CFTR gene and is associated with abnormal CFTR function and a mild form of Cystic Fibrosis^64. Using RT-PCR, the minigene was confirmed to harbor the mutation (EMG-MUT), showing only 5% exon 18 inclusion.

CFTR c.2988G>A = experiment: CFTR exon 18 inclusion, RT-PCR in Flp-In-293 stable cells expressing c.2988G>A CFTR-EMG-i14-i18; format: cell-based, human; conditions: Flp-In-293 c.2988G>A, 60 μM, 5 days
Description: HEK-293 cells stably transfected with the expression minigenes (EMGs) for the full-length coding sequence and flanking intron sequence of the Cystic Fibrosis Transmembrane Conductance Regulator (CFTR) (courtesy of Dr. Garry R. Cutting, Johns Hopkins University school of Medicine, Baltimore, Md.) were cultured in D-MEM supplemented with 10% FBS (FBS), 1% penicillin/streptomycin and 0.1 mg/mL Hygromycin (SIGMA).
After treatment, the cells were collected and RNA was extracted with QIAzol Lysis Reagent (79306, Qiagen) following the manufacturer's instructions. The yields of the total RNA for each sample were determined using a Nanodrop ND-1000 spectrophotometer. […]
Ratios between isoforms having the middle exon included or excluded were obtained using the integrated density value (IDV) for each correspondent band, and then assessed using Alpha 2000™ Image Analyzer and quantified by ImageJ software. The level of exon inclusion was calculated as previously described^4, where the relative density value of the band represents inclusion and is expressed as a percentage. Validation of the semi-quantitative RT-PCR method for the measurement of exon inclusion was performed using RT-qPCR^4. […]

Clc1nc(NCc2ccncc2)c2cc[nH]c2n1 [Compound (I), 2-chloro-N-(pyridin-4-ylmethyl)-7H-pyrrolo[2,3-d]pyrimidin-4-amine]
exon 18 inclusion in EMG-MUT [1]: significantly increased exon inclusion
increase of CFTR exon 18 inclusion (CFTR c.2988G>A): 10%
